Reference: patent publication US20120034613A1, “Apparatus and Method for Testing Relationships Between Gene Expression and Physical Appearance of Skin” (NSE Products, Inc., priority 2010, published 2012)

Test system: EpidermFT™ Skin Model (EFT-400) full thickness skin cultures
Assay: Affymetrix GeneChip HG U133 Plus 2.0 microarray global gene expression, agent-exposed vs untreated skin cultures
Assay type: cell-based, human
Details: Salicin 0.5% vs Untreated Control, 24 hr treatment

OCc1ccccc1O[C@@H]1O[C@H](CO)[C@@H](O)[C@H](O)[C@H]1O [Salicin, 2-(Hydroxymethyl)phenyl β-D-glucospyranoside]
Fold change ING1 (209808_x_at): 2.572
Fold change IRAK2 (231779_at): 2.734
Fold change IRAK3 (220034_at): 2.411
Fold change ITPRIP (225582_at): 2.421
Fold change JHDM1D (225142_at): 2.825
Fold change KCNA3 (207237_at): 2.308
Fold change KCNE4 (222379_at): 2.686
Fold change KCNE4 (1552508_at): 2.802
Fold change KCNJ8 (205303_at): 2.493
Fold change KCNJ8 (205304_s_at): 2.387
Fold change KLF15 (231015_at): 2.338
Fold change KLHL29 (229310_at): 2.719
Fold change LCP1 (208885_at): 2.513
Fold change LOC285628 (232504_at): 2.636
Fold change LOC440028 (1562606_a_at): 2.7
Fold change LOC729222 /// PPFIBP1 (214375_at): 2.426
Fold change LOC100128821 /// ZEB2 (235593_at): 2.365
Fold change LOC100132244 (229438_at): 2.299
Fold change LPAR1 (204036_at): 2.391
Fold change LPAR1 (204037_at): 2.425
Fold change LPAR1 (204038_s_at): 2.732
Fold change LPPR4 (213496_at): 2.406
Fold change LRCH2 (227688_at): 2.318
Fold change LRRK2 (229584_at): 2.314
Fold change MAGEA4 (214254_at): 2.513
Fold change MAP3K4 (216199_s_at): 2.654
Fold change MAP3K5 (203836_s_at): 2.356
Fold change MAP9 (220145_at): 2.4529
Fold change MASP1 (232224_at): 2.402
Fold change MASP1 (235770_at): 2.324
Fold change MESDC1 (223264_at): 2.618
Fold change MGST1 (239001_at): 2.428
Fold change MMD (203414_at): 2.313
Fold change MTHFD2L (220346_at): 2.597
Fold change MYO3B (1552578_a_at): 2.338
Fold change NAMPT (217738_at): 2.668
Fold change NEGR1 (1553194_at): 2.339
Fold change NEXN (226103_at): 2.323
Fold change NFKB2 (207535_s_at): 2.67
Fold change NFKBIZ (223217_s_at): 2.35
Fold change NOVA1 (205794_s_at): 2.682
Fold change NR4A1 (202340_x_at): 2.338
Fold change NRP2 (228699_at): 2.306
Fold change OLAH (222945_x_at): 2.586
Fold change PAPPA (201981_at): 2.727
Fold change PAPPA (224940_s_at): 2.664
Fold change PAPPA (224941_at): 2.737
Fold change PAPPA (228128_x_at): 2.482
Fold change PAPPA (1559400_s_at): 2.415
Fold change PCDH7 (210941_at): 2.333
Fold change PCSK1 (205825_at): 2.59
Fold change PDE4D (211840_s_at): 2.429
Fold change PEG10 (212092_at): 2.813
Fold change PF4 (206390_x_at): 2.652
Fold change PGM2L1 (229256_at): 2.478
Fold change PHLDA1 (217996_at): 2.515
Fold change PHTF1 (215285_s_at): 2.498
Fold change PI15 (229947_at): 2.619
Fold change PID1 (219093_at): 2.447
Fold change PID1 (237867_s_at): 2.743
Fold change PISD (202392_s_at): 2.402
Fold change PITPNC1 (238649_at): 2.621
Fold change PLAUR (211924_s_at): 2.357
Fold change PLEKHA3 (223370_at): 2.302
Fold change PTGER4 (204897_at): 2.525
Fold change PTGES (207388_s_at): 2.768
Fold change PTGES (210367_s_at): 2.519
Fold change PTGS1 (205128_x_at): 2.327
Fold change PTGS1 (215813_s_at): 2.306
Fold change PTHLH (206300_s_at): 2.505
Fold change PTHLH (211756_at): 2.599
Fold change PTPRG (204944_at): 2.299
Fold change QKI (228540_at): 2.426
Fold change RAB3B (205924_at): 2.634
Fold change RAB3B (227123_at): 2.514
Fold change RAB23 (220955_x_at): 2.644
Fold change RABGGTB (209180_at): 2.305
Fold change RABGGTB (213704_at): 2.423
Fold change RAI14 (202052_s_at): 2.503
Fold change RASSF8 (235996_at): 2.788
Fold change RGS3 (203823_at): 2.462
Fold change RGS5 (209070_s_at): 2.7
Fold change RGS12 (242079_at): 2.358
Fold change RHOQ (212122_at): 2.398
Fold change SEC24A (212902_at): 2.298
Fold change SEMA3A (206805_at): 2.505
Fold change SETDB2 (235339_at): 2.377
Fold change SGK1 (201739_at): 2.419
Fold change SH3RF3 (228461_at): 2.389
Fold change SHOX (207570_at): 2.312
Fold change SLC6A15 (232263_at): 2.365
Fold change SLC11A2 (237106_at): 2.533
Fold change SLC20A1 (230494_at): 2.526
Fold change SLC43A3 (210692_s_at): 2.457
Fold change SLFN11 (226743_at): 2.451
Fold change SLIT2 (209897_s_at): 2.499
Fold change SNHG12 (223774_at): 2.339
Fold change SOCS2 (203373_at): 2.46
Fold change SPON1 (209437_s_at): 2.36
Fold change SPON1 (213993_at): 2.499
Fold change SQSTM1 (213112_s_at): 2.447
Fold change ST3GAL1 (208322_s_at): 2.644
Fold change ST3GAL1 (225033_at): 2.64
Fold change STK17B (205214_at): 2.309
Fold change SULF1 (212344_at): 2.665
Fold change TAF1A (206613_s_at): 2.359
Fold change TAGLN (205547_s_at): 2.426
Fold change TBC1D1 (212350_at): 2.386
Fold change TBC1D1 (227945_at): 2.566
Fold change TGM2 (201042_at): 2.351
Fold change THBS1 (201108_s_at): 2.756
Fold change THBS1 (239336_at): 2.417
Fold change THRAP3 (242163_at): 2.62
Fold change TMEM38B (222735_at): 2.489
